In US10988524B2, “Modified relaxin B chain peptides and their therapeutic use” (priority 2018, dated 2021):
“And” between values parts separate entries of the source, which are not always exact repeats. Identical values can stand only once. Non-standard residues stand in square brackets, D forms with d. Residues, ends and D or L forms follow the SMILES beside them. αMeK = C[C@](N)(CCCCN)C(=O)O; αMeS = C[C@](N)(CO)C(=O)O; Nle = CCCC[C@H](N)C(=O)O; Aib = CC(C)(N)C(=O)O

Biological target: T1, RXFP1 (Homo sapiens, UniProt Q9HBX9)
T1 sequence (Q9HBX9 1-757): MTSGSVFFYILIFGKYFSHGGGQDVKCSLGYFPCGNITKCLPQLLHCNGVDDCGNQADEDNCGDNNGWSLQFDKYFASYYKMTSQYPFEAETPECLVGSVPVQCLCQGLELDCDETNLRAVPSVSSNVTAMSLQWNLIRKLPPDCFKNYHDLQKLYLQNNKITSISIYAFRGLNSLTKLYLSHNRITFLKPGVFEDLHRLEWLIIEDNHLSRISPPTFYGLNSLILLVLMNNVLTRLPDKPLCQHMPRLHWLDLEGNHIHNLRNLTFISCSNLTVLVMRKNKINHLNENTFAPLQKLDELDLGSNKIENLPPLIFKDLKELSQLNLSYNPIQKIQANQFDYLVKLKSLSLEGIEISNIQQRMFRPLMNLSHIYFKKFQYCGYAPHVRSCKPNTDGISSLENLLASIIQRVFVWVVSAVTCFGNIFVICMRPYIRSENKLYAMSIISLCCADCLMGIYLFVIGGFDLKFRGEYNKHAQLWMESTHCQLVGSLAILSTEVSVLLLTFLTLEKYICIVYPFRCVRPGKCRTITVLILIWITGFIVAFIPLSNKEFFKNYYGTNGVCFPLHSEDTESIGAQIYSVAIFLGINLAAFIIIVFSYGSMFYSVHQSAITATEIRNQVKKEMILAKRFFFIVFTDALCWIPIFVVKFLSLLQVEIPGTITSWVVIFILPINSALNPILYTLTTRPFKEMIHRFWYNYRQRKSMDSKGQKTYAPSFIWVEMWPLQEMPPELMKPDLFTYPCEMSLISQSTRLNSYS
Assay: OVCAR5 cAMP assay (RXFP1 agonist activity, HTRF)
Conditions: for Emax: OVCAR-5, read-out: cAMP assay in OVCAR 5 cells Emax, maximal intracellular cAMP relative to H2-relaxin in the same test occasion; for EC50: cAMP assay in OVCAR 5 cells EC50 (nM), OVCAR5 cells expressing endogenous RXFP1, cAMP by HTRF, 30 min at 37° C., 1 mM IBMX

Row | Emax | EC50 | Structure (SMILES)
1 | 91% |  | CCCC[C@H](NC(=O)CNC(=O)[C@H](CCC(=O)O)NC(=O)C(C)(C)NC(=O)C(C)(C)NC(=O)[C@@H](NC(=O)[C@H](C)NC(=O)[C@H](C)NC(=O)[C@H](CCCNC(=N)N)NC(=O)[C@@H](NC(=O)[C@H](CCCCN)NC(=O)[C@H](CCC(=O)O)NC(=O)[C@H](CCCNC(=N)N)NC(=O)CNC(=O)[C@H](CCC(=O)O)NC(=O)[C@H](CC(C)C)NC(=O)[C@H](CCC(=O)O)NC(C)=O)C(C)C)[C@@H](C)CC)C(=O)N[C@@H](CO)C(=O)N[C@H](C(=O)N[C@@H](Cc1c[nH]c2ccccc12)C(=O)N[C@@H](CO)C(=O)NC(C)(C)C(=O)N[C@@H](CCCNC(=N)N)C(=O)N[C@@H](CCCCN)C(=O)N[C@@H](CCCCN)C(N)=O)[C@@H](C)O [compound 48] (Ac-ELEGREKVRAAI[Aib][Aib]EG[Nle]STWS[Aib]RKK-NH2)
2 | 97% |  | CCCC[C@H](NC(=O)CNC(=O)[C@H](CCC(=O)O)NC(=O)C(C)(C)NC(=O)C(C)(C)NC(=O)[C@@H](NC(=O)C(C)(C)NC(=O)[C@H](C)NC(=O)[C@H](CCCNC(=N)N)NC(=O)[C@@H](NC(=O)[C@H](CCCCN)NC(=O)[C@H](CCC(=O)O)NC(=O)[C@H](CCCNC(=N)N)NC(=O)CNC(=O)[C@H](CCC(=O)O)NC(=O)[C@H](CC(C)C)NC(C)=O)C(C)C)[C@@H](C)CC)C(=O)N[C@@H](CO)C(=O)N[C@H](C(=O)N[C@@H](Cc1c[nH]c2ccccc12)C(=O)N[C@@H](CO)C(=O)N[C@@H](CCCCN)C(=O)N[C@@H](CCCNC(=N)N)C(=O)N[C@@H](CCCCN)C(=O)N[C@@H](CCCCN)C(N)=O)[C@@H](C)O [compound 19] (Ac-LEGREKVRA[Aib]I[Aib][Aib]EG[Nle]STWSKRKK-NH2)
3 | 92% |  | CCCC[C@H](NC(=O)CNC(=O)[C@H](CCC(=O)O)NC(=O)C(C)(C)NC(=O)C(C)(C)NC(=O)[C@@H](NC(=O)[C@H](CCCCNC(C)=O)NC(=O)[C@H](C)NC(=O)[C@H](CCCNC(=N)N)NC(=O)[C@@H](NC(=O)[C@H](CCCCN)NC(=O)[C@H](CCC(=O)O)NC(=O)[C@H](CCCNC(=N)N)NC(=O)CNC(=O)[C@H](CCC(=O)O)NC(=O)[C@H](CC(C)C)NC(C)=O)C(C)C)[C@@H](C)CC)C(=O)N[C@@H](CO)C(=O)N[C@H](C(=O)N[C@@H](Cc1c[nH]c2ccccc12)C(=O)N[C@@H](CO)C(=O)NC(C)(C)C(=O)N[C@@H](CCCNC(=N)N)C(=O)N[C@@H](CCCCNC(C)=O)C(=O)N[C@@H](CCCCNC(C)=O)C(N)=O)[C@@H](C)O [compound 28] (Ac-LEGREKVRAK(Ac)I[Aib][Aib]EG[Nle]STWS[Aib]RK(Ac)K(Ac)-NH2)
4 | 97% | ≤ 10 nM and ≤ 5 nM and 1.8 nM | CCCC[C@H](NC(=O)CNC(=O)[C@H](CCC(=O)O)NC(=O)C(C)(C)NC(=O)C(C)(C)NC(=O)[C@@H](NC(=O)C(C)(C)NC(=O)[C@H](C)NC(=O)[C@H](CCCNC(=N)N)NC(=O)[C@@H](NC(=O)[C@H](CCCCN)NC(=O)[C@H](CCC(=O)O)NC(=O)[C@H](CCCNC(=N)N)NC(=O)CNC(=O)[C@H](CCC(=O)O)NC(=O)[C@H](CC(C)C)NC(C)=O)C(C)C)[C@@H](C)CC)C(=O)N[C@@H](CO)C(=O)N[C@H](C(=O)N[C@@H](Cc1c[nH]c2ccccc12)C(=O)N[C@@H](CO)C(=O)N[C@@](C)(CCCCN)C(=O)N[C@@H](CCCNC(=N)N)C(=O)N[C@@H](CCCCN)C(=O)N[C@@H](CCCCN)C(N)=O)[C@@H](C)O [compound 20] (Ac-LEGREKVRA[Aib]I[Aib][Aib]EG[Nle]STWS[αMeK]RKK-NH2)
5 | 90% |  | CCCC[C@H](NC(=O)CNC(=O)[C@H](CCC(=O)O)NC(=O)C(C)(C)NC(=O)C(C)(C)NC(=O)[C@@H](NC(=O)[C@H](C)NC(=O)[C@H](C)NC(=O)[C@H](CCCNC(=N)N)NC(=O)[C@@H](NC(=O)[C@H](CCCCN)NC(=O)[C@H](CCC(=O)O)NC(=O)[C@H](CCCNC(=N)N)NC(=O)CNC(=O)[C@H](CCC(=O)O)NC(=O)[C@H](CC(C)C)NC(C)=O)C(C)C)[C@@H](C)CC)C(=O)N[C@@H](CO)C(=O)N[C@H](C(=O)N[C@@H](Cc1c[nH]c2ccccc12)C(=O)N[C@@H](CO)C(=O)NC(C)(C)C(=O)N[C@@H](CCCNC(=N)N)C(=O)N[C@@H](CCCCN)C(=O)N[C@@H](CCCCN)C(N)=O)[C@@H](C)O [compound 17] (Ac-LEGREKVRAAI[Aib][Aib]EG[Nle]STWS[Aib]RKK-NH2)
6 | 93% |  | CCCC[C@H](NC(=O)CNC(=O)[C@H](CCC(=O)O)NC(=O)C(C)(C)NC(=O)C(C)(C)NC(=O)[C@@H](NC(=O)[C@H](CCCCNC(C)=O)NC(=O)[C@H](C)NC(=O)[C@H](CCCNC(=N)N)NC(=O)[C@@H](NC(=O)[C@H](CCCCN)NC(=O)[C@H](CCC(=O)O)NC(=O)[C@H](CCCNC(=N)N)NC(=O)CNC(=O)[C@H](CCC(=O)O)NC(=O)[C@H](CC(C)C)NC(C)=O)C(C)C)[C@@H](C)CC)C(=O)N[C@@H](CO)C(=O)N[C@H](C(=O)N[C@@H](Cc1c[nH]c2ccccc12)C(=O)N[C@@](C)(CO)C(=O)NC(C)(C)C(=O)N[C@@H](CCCNC(=N)N)C(=O)N[C@@H](CCCCN)C(=O)N[C@@H](CCCCNC(C)=O)C(N)=O)[C@@H](C)O [compound 30] (Ac-LEGREKVRAK(Ac)I[Aib][Aib]EG[Nle]STW[αMeS][Aib]RKK(Ac)-NH2)
7 | 82% |  | CC[C@H](C)[C@H](NC(=O)[C@H](CCC(N)=O)NC(=O)[C@H](C)NC(=O)[C@H](CCCNC(=N)N)NC(=O)[C@@H](NC(=O)[C@H](CCCCN)NC(=O)[C@H](CCC(=O)O)NC(=O)[C@H](CCCNC(=N)N)NC(=O)CNC(=O)[C@H](CCC(=O)O)NC(=O)[C@H](CC(C)C)NC(C)=O)C(C)C)C(=O)NC(C)(C)C(=O)NC(C)(C)C(=O)N[C@@H](CCC(=O)O)C(=O)NCC(=O)N[C@@H](CCSC)C(=O)N[C@@H](CO)C(=O)N[C@@H](CCCCN)C(=O)N[C@@H](Cc1c[nH]c2ccccc12)C(=O)N[C@@H](CO)C(=O)NC(C)(C)C(=O)N[C@@H](CCCNC(=N)N)C(N)=O [compound 46] (Ac-LEGREKVRAQI[Aib][Aib]EGMSKWS[Aib]R-NH2)
8 | 91% | 24.4 nM | CC[C@H](C)[C@H](NC(=O)[C@H](CCC(N)=O)NC(=O)[C@H](C)NC(=O)[C@H](CCCNC(=N)N)NC(=O)[C@@H](NC(=O)[C@H](CCCCN)NC(=O)[C@H](CCC(=O)O)NC(=O)[C@H](CCCNC(=N)N)NC(=O)CNC(=O)[C@H](CCC(=O)O)NC(=O)[C@H](CC(C)C)NC(C)=O)C(C)C)C(=O)NC(C)(C)C(=O)NC(C)(C)C(=O)N[C@@H](CCC(=O)O)C(=O)NCC(=O)N[C@@H](CCC(N)=O)C(=O)N[C@@H](CO)C(=O)N[C@H](C(=O)N[C@@H](Cc1ccccc1)C(=O)N[C@@H](CO)C(=O)NC(C)(C)C(=O)N[C@@H](CCCNC(=N)N)C(=O)N[C@@H](CCCCN)C(=O)N[C@@H](CCCCN)C(N)=O)[C@@H](C)O [compound 57] (Ac-LEGREKVRAQI[Aib][Aib]EGQSTFS[Aib]RKK-NH2)
9 | 98% |  | CC[C@H](C)[C@H](NC(=O)[C@H](CCC(N)=O)NC(=O)[C@H](C)NC(=O)[C@H](CCCNC(=N)N)NC(=O)[C@@H](NC(=O)[C@H](CCCCN)NC(=O)[C@H](CCC(=O)O)NC(=O)[C@H](CCCNC(=N)N)NC(=O)CNC(=O)[C@H](CCC(=O)O)NC(=O)[C@H](CC(C)C)NC(C)=O)C(C)C)C(=O)NC(C)(C)C(=O)NC(C)(C)C(=O)N[C@@H](CCC(=O)O)C(=O)NCC(=O)N[C@@H](CCC(N)=O)C(=O)N[C@@H](CO)C(=O)N[C@H](C(=O)N[C@@H](Cc1c[nH]c2ccccc12)C(=O)N[C@@H](CO)C(=O)NC(C)(C)C(=O)N[C@@H](CCCNC(=N)N)C(=O)N[C@@H](CCCCN)C(=O)N[C@@H](CCCCN)C(N)=O)[C@@H](C)O [compound 35] (Ac-LEGREKVRAQI[Aib][Aib]EGQSTWS[Aib]RKK-NH2)
10 | 95% | 9.5 nM | CCCC[C@H](NC(=O)CNC(=O)[C@H](CCC(=O)O)NC(=O)C(C)(C)NC(=O)C(C)(C)NC(=O)[C@@H](NC(=O)[C@H](CCCCNC(C)=O)NC(=O)[C@H](C)NC(=O)[C@H](CCCNC(=N)N)NC(=O)[C@@H](NC(=O)[C@H](CCCCN)NC(=O)[C@H](CCC(=O)O)NC(=O)[C@H](CCCNC(=N)N)NC(=O)CNC(=O)[C@H](CCC(=O)O)NC(=O)[C@H](CC(C)C)NC(C)=O)C(C)C)[C@@H](C)CC)C(=O)N[C@@H](CO)C(=O)N[C@H](C(=O)N[C@@H](Cc1c[nH]c2ccccc12)C(=O)N[C@@H](CO)C(=O)NC(C)(C)C(=O)N[C@@H](CCCNC(=N)N)C(=O)N[C@@H](CCCCNC(C)=O)C(=O)N[C@@H](CCCCN)C(N)=O)[C@@H](C)O [compound 27] (Ac-LEGREKVRAK(Ac)I[Aib][Aib]EG[Nle]STWS[Aib]RK(Ac)K-NH2)
